Measurements from patent US5604263A, “Treating osteoporosis with humulones” (Hoechst Japan Limited, priority 1994, dated 1997).
Where two headings read alike, the source gives them in different places.

Tested on: bone resorption (pit formation) by bone cell containing osteoclasts
Assay: Pit formation assay (bone resorption inhibiting activity; absorption cavities on ivory pieces)
Assay type: cell-based, ICR mice
Conditions: for No. of pits (Mean ± SD): control 328.0 ± 51.0; for IC50 / inhibition at 10 µM / inhibition at 1 µM / inhibition at 0.1 µM / inhibition at 0.01 µM / inhibition at 0.001 µM / inhibition at 0.0001 µM / inhibition at 10 pM: Mus musculus, Osteoclast; for IC50: read-out: 50% inhibitory (ID50) value
Method: From 10 to 11-day old ICR mice (purchased from Charles River Inc.) were extracted femur and shank, which were then chopped using scissors in a-MEM medium (purchased from Flow Laboratories Inc.) containing 5% FBS (purchased from Irving Scientific Inc.), 100 U/ml penicillin and 100 μg/ml streptomycin. And further, the resulting supernatant was recovered by pipetting, washed with the medium and then suspended in 5% FBS, a-MEM medium to form bone cell containing osteoclasts. The bone cell suspension thus prepared was incubated in the medium containing rat parathyroid hormone for one week. After completion of the incubation, the cells were recovered using 0.05% trypsin EDTA-PBS and applied to pit formation assay.
An ivory piece was cut to a thickness of 150 μm using a precision low speed cutter (purchased from Buehler GmbH) and then round pieces with a diameter of 6 mm were cut out using a one-hole punch. These ivory pieces were immersed in 70% ethanol, subjected to sonication twice for each 5 minutes and then washed three times with sterile PBS and twice with the medium. These ivory pieces were placed in a 96-well culture plate (purchased from Falcon Inc.) and 100 µl of the medium containing medicaments at various concentrations was added. Then, 100 μl of the media containing the above prepared bone cells 1×10^5 was added to each well. Incubation was carried out at 37° C. in a 10% CO2 incubator for 2 days. After completion of the incubation, the cell over the ivory piece was removed, absorption cavities were stained with Coomassie Brilliant Blue and the number of the absorption cavities thus formed was counted under microscope.
Organosynthetic humulone was prepared according to Obara, H. et al., Bull. Chem. Soc. Jpn., vol.62, p.3034-3035 (1989). Bone resorption inhibiting activities of the organosynthetic humulone thus obtained and α acids obtained in example 1 were determined by means of the assay as described in (2) of example 2.
Bone resorption inhibiting activities of the native humulone thus obtained in Example 4 and the organosynthetic humulone thus obtained in Example 3 were determined by means of the assay as described in (2) of example 2.

IC50 (Example 5) [nM] | IC50 (Example 3, organosynthetic humulone and α acids of example 1) [nM] | SMILES | No. of pits (Mean ± SD) (Example 5, dose 10^-5 M) | No. of pits (Mean ± SD) (Example 5, dose 10^-6 M) | No. of pits (Mean ± SD) (Example 5, dose 10^-7 M) | No. of pits (Mean ± SD) (Example 5, dose 10^-8 M) | No. of pits (Mean ± SD) (Example 5, dose 10^-9 M) | No. of pits (Mean ± SD) (Example 5, dose 10^-10 M) | No. of pits (Mean ± SD) (Example 5, dose 10^-11 M) | inhibition at 10 µM (Example 5, dose 10^-5 M) [%] | inhibition at 1 µM (Example 5, dose 10^-6 M) [%] | inhibition at 0.1 µM (Example 5, dose 10^-7 M) [%] | inhibition at 0.01 µM (Example 5, dose 10^-8 M) [%] | inhibition at 0.001 µM (Example 5, dose 10^-9 M) [%] | inhibition at 0.0001 µM (Example 5, dose 10^-10 M) [%] | inhibition at 10 pM (Example 5, dose 10^-11 M) [%]
5.9 | – | CC(C)=CCC1=C(O)C(C(=O)CC(C)C)=C(O)C(O)(CC=C(C)C)C1=O (single isomer, unassigned) [Native humulone, humulone] | 0.3 ± 0.5 | 6.5 ± 3.8 | 34.5 ± 7.4 | 128.5 ± 23.1 | 251.5 ± 135.4 | 274.3 ± 54.9 | 274.3 ± 91.6 | 99.9 | 98 | 89.5 | 60.8 | 23.3 | 16.4 | 16.4
26 | 130 | CC(C)=CCC1C(=O)C(C(=O)CC(C)C)=C(O)C(O)(CC=C(C)C)C1=O (stereo not shown) [Organosynthetic humulone, humulone] | 6.8 ± 5.3 | 33.7 ± 20.2 | 70.7 ± 9.3 | 217.0 ± 89.1 | 221.8 ± 88.3 | 221.3 ± 54.1 | 281.3 ± 38.1 | 97.9 | 89.7 | 78.4 | 33.8 | 32.4 | 32.5 | 14.2
